Experimental data from patent publication US7652015B2, “Kinase inhibitors” (Eli Lilly and Company, priority 2006, dated 2010).

Assays:
TNFα [1] = test: Inhibition of TNFα in vivo, LPS challenged mice, plasma ELISA; settings: female Balb/c mice, p.o., LPS IP 400 μg/kg 1 hour after compound, plasma 1.5 hours after LPS
Experimental: Compounds are administered p.o. (30, 10, 3 and 1 mg/kg) to female Balb/c mice (6 mice/dose). 1 hour following compound administration at 4 doses (P.O. at volume of 0.1 mL/mouse; vehicle: 1% NaCMC/0.25% Tween-80 in water); mice are given an IP-injection of LPS at 400 μg/kg. 1.5 hours after LPS challenging, mice are anesthetized with isoflurane and blood is taken via cardiac puncture. TNFα-levels in the plasma are determined using ELISA kit from R&D Systems and dose response ED50 is determined.
The Threshold Minimum Effective Dose (TMED) 50 is the dose at which greater than or equal to 50% inhibition was achieved and statistically different from control/placebo.

TNFα [2] = test: Inhibition of TNFα in vitro, LPS/interferon-γ treated mouse peritoneal macrophages, Luminex; assay type: cell-based; settings: Peritoneal macrophage, 50 ng/mL LPS and 10 U/mL interferon-γ, 18 hours, read-out: IC50, suppression of TNFα in vitro
Experimental: 1 mL thioglycolate broth (5.0 g yeast extract, 15.0 g casitone or trypticase, 5.0 g dextrose, 2.5 g sodium chloride, 0.75 g L-cystine, 0.5 g sodium thioglycolate, 1.0 mg resazurin, and 0.75 g agar in 1.0 L distilled water) are injected into the peritoneal cavity of Balb/C female mice. At day 4 or 5 post-injection the mice are sacrificed and then injected i.p. with 4 mL RPMI-1640 medium (BioWhittaker) and the peritoneal macrophages are withdrawn by syringe.
Mouse peritoneal macrophages are counted with a hemocytometer and adjusted to 5×10^5 cells/well in 96-well plates in RPMI-1640 medium with 10% fetal bovine serum. 200 μL/well is plated in 96-well plates and the cells allowed to settle and adhere to the bottom of the well for at least 3 hours. The test compound or standard p38 kinase inhibitor is pre-treated using a series of 8 concentrations for 1 hour at 37° C. […]
50 μL of cytokine detection antibody is added and incubated for 60 seconds at room temperature on a shaker protected from light at setting 6 and then for 30 minutes at setting 3.3 washes are performed with the Bio-Plex Wash Buffer. […] Standards and samples are read on a Luminex machine. These intensity readings are then converted to picogram/milliliter units based on a 12-point standard curve created in duplicate using a four-parameter logistic regression method (Bio-Plex Manager 2.0, Bio-Rad), and the IC50 calculated. […]

Phospho-MAPKAPK2 = test: Anisomycin-stimulated mice ex-vivo phospho-MAPKAPK2 inhibition assay by flow cytometry; assay type: in vivo; settings: female Balb/c mice, po, blood after 2 hours, ex vivo 10 μg/ml anisomycin, CD11b+Ly6G- cells
Experimental: Female Balb/c mice with 8-10 week-old age are purchased from Taconic Inc. and dosed po with 0.2 mL volume of compounds at the concentrations of 30, 10, 3, 1 mg/kg. Blood is obtained from cardiac puncture after 2 hours or other indicated time periods and collected in EDTA-containing tubes. 100 μL of blood is incubated at 37° C. for 10 minutes. Whole blood is then mixed with FITC-conjugated rat anti-mouse Ly-6G mAb (1:250) and APC-conjugated rat anti-mouse CD11b mAb (1:100) and stimulated with 10 μg/ml anisomycin. Both cell surface antigen staining and anisomycin stimulation is conducted at 37° C. for 15 min and followed up with Lyse/Fix buffer (BD Biosciences, Cat#558049) for 10 min at room temperature. Lysed blood samples are spun down at 600×g for 8 minutes at room temperature with additional wash once by 4 mL PBS. 200 μL of diluted anti-Phospho-MAPKAPK-2 (Thr334) antibody (1:100 dilution) (Cell Signaling, Cat#3041) and mouse BD Fc Block (1:100 dilution) (BD Biosciences, 553141) in permeabilization Medium B (Caltag, Catg GAS002S-5) are added into blood cells and incubate at room temperature for 30 minutes. After the incubation, 3 mL of stain/wash buffer is added and cells are spanned down as described above with additional wash with 3 ml stain/wash buffer. […] Mean fluorescence of phosphono-MapKap-K2 staining is measured on gated CD11b+Ly6G-cells. […]

How did the “TMED50, suppression of TNFα in vivo” value (TNFα [1]) turn out when `CS(=O)(=O)O.Cc1ccc(-n2nc(C(C)(C)C)cc2NC(=O)Nc2ccc(N3CCN(C(=O)c4c(F)cccc4F)CC3)nc2C)cc1` [Example 5, 1-(5-tert-Butyl-2-p-tolyl-2H-pyrazol-3-yl)-3-{6-[4-(2,6-difluoro-benzoyl)-piperazin-1-yl]-2-methyl-pyridin-3-yl}-urea methanesulfonate] was run?
The value was 2.24 mg/kg.

And the IC50 (TNFα [2])?
The IC50 was 18 nM.

What about the “TMED50, inhibition of p-MAPKAPK synthesis” value (Phospho-MAPKAPK2) of the same compound?
Its value is 2.28 mg/kg.
